Results published in patent US7217722B2 (Kirin Beer Kabushiki Kaisha, priority 2000, dated 2007).
Where two headings read alike, the source gives them in different places.

Key:
[1] = biological target: Rho kinase (fused protein of bovine Rho kinase catalyst region and glutathione S-transferase) (Bos taurus, UniProt Q28021); test: Rho kinase inhibitory activity (phosphorylation of S6 231–239 substrate, γ32P-ATP); assay type: biochemical; settings: concentration inhibiting substrate phosphorylation by 50%
Protocol: This permits the substrate to be labeled with the radioisotope.
Thereafter, the substrate was adsorbed to a filter paper. ATP was washed away with a phosphoric acid solution, and the amount of the phosphorylated substrate was then measured with a liquid scintillation counter.

[2] = tested on: spontaneously hypertensive male rats (SHR); test: Antihypertensive activity in spontaneously hypertensive rats; assay type: in vivo; settings: Rattus norvegicus, po, 30 mg/kg oral, mean ± SEM of 3 to 4 SHRs, read-out: Blood pressure depression, %
Protocol: This test was carried out as follows. A test compound was dissolved in purified water, or alternatively the test compound was suspended in a 5% aqueous sodium carboxymethylcellulose solution. The solution or the suspension was forcibly administered into the gaster of SHR through an oral probe. The systolic pressure of SHR was measured with a bloodless sphygmometer (BP-98A, Softron Co.) immediately before the administration of the test compound and 3 to 4 hr after the administration of the test compound or 6 to 7 hr after the administration of the test compound. The percentage of blood pressure depression was calculated by the following equation: Antihypertensive activity (%)={(blood pressure before administration of test compound−blood pressure after administration of test compound)/blood pressure before administration of test compound}×100
Each compound was administered at 30 mg/kg, and the antihypertensive activity (%) was expressed in terms of the mean value of 3 to 4 SHRs and SEM (standard error of the mean).
For data with *, the blood pressure was measured 6 to 7 hr after the administration of the test compound, and, for data with no marks, the blood pressure was measured 3 to 4 hr after the administration of the test compound.

[3] = tested on: Human-derived histiocyte lymphoma (U937/CCR2); test: Leukocyte migration inhibitory activity (MCP-1 induced migration, CHEMOTAXICELL); assay type: cell-based; settings: Homo sapiens, U-937, 1 h, U937/CCR2, MCP-1, 1 hr, read-out: Migration inhibition (%) ± SEM; for inhibition at 0.3 µM: test compound 0.3 μM; for inhibition at 1 µM: test compound 1 μM
Protocol: Human-derived histiocyte lymphoma (U937/CCR2), in which mouse-derived CCR2 had been highly expressed, was suspended in a 0.1% BSA-containing RPMI 1640 medium, to which a test compound had been added (5×10^6/ml), and the suspension was incubated for 20 min. A chemical solution (500 μl) (0.1% BSA-containing RPMI 1640 medium DMSO 1%), to which an MCP-1 ligand (1 μM) and the test compound had been added, was added to a 24-well plate. CHEMOTAXICELL was put thereon, and 200 μl of the cell suspension was added to the top layer, followed by migration under 5% carbon dioxide at 37° C. for one hr. The number of cells, which had migrated to the lower chamber, was counted with a particle count analyzer (CDA-500, SYSMEX CORPORATION), and the percentage migration inhibition was calculated by the following equation; Migration inhibition (%)={1−(number of migrated cells in the presence of test compound/number of migrated cells in the absence of test compound)}×100

[4] = tested on: anti-GBM nephritis model WKY rats; test: Albuminuria amelioration activity for anti-GBM nephritis model using WKY rats; assay type: in vivo, rat; settings: 24 hr urine, control group 840.4 ± 82.2
Protocol: Anti-GBM antibody produced by immunizing domestic rabbits with a rat-derived GBM fraction was caudointravenously administered to WKY male rats of 9 weeks old to induce nephritis. […] During 24 hr from two weeks after the administration of the antibody, urine was collected, and the protein level of urine was measured to observe albuminuria amelioration activity.

[5] = tested on: anti-GBM nephritis model S.D. rats; test: Albuminuria amelioration activity for anti-GBM nephritis model using S.D. rats; assay type: in vivo, rat; settings: oral 30 mg/kg twice daily, urine 0-24 hr after antibody, control group 794.2 ± 113.2
Protocol: Anti-GBM antibody produced by immunizing domestic rabbits with a rat-derived GBM fraction was caudointravenously administered to S.D. male rats of 8 weeks old to induce nephritis. Immediately after the administration of the antibody and six hr after the administration of the antibody, the compound of Example 300 was orally administered at 30 mg/kg. Urine was collected in a period between immediately after the administration of the antibody and 24 hr after the administration of the antibody, and the protein level of urine was measured to observe albuminuria amelioration activity.

[6] = systolic pressure 3 to 4 hr after administration
[7] = systolic pressure 6 to 7 hr after administration (data with *)

Chain of Rho kinase (fused protein of bovine Rho kinase catalyst region and glutathione S-transferase) (Q28021 92-354 limits assumed): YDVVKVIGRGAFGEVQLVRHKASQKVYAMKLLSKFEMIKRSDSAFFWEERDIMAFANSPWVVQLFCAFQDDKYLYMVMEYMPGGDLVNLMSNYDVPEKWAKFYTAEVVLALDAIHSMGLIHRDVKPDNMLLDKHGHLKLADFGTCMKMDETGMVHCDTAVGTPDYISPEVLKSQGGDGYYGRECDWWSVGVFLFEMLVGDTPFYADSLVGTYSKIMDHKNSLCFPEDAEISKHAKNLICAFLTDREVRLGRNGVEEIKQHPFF

Question: For `c1ccc(CN2CCCC(Nc3ccc4[nH]ncc4c3)C2)cc1` (centres unmarked) [Example 21], which IC50 [1] is on record?
Answer: 20 nM

Question: And the inhibition in vivo at 30 mg/kg [2, 6]?
Answer: 37 ± 2.5%

Question: With `c1ccc(CN2CCC(Nc3ccc4[nH]ncc4c3)CC2)cc1` [Example 126, N-(1-benzyl-4-piperidyl)-N-(1H-5-indazolyl)-amine] as the compound, how does the inhibition at 30 µM ([3]; test compound 30 μM) read?
Answer: 49.1 ± 4.6%

Question: And the inhibition in vivo at 30 mg/kg [2, 6]?
Answer: 18 ± 3.5%

Question: `Fc1ccc(CN2CCCC(Nc3ccc4[nH]ncc4c3)C2)cc1` (centres unmarked) [Example 164, N-[1-(4-fluorobenzyl)-3-piperidyl]-N-(1H-5-indazolyl)amine] was tested. Which IC50 [1] did it give?
Answer: 16 nM

Question: And the inhibition in vivo at 30 mg/kg [2, 6]?
Answer: 35 ± 4.7%

Question: Which inhibition at 3 µM ([3]; test compound 3 μM) does the source give for `O=C(NCCF)C(c1ccccc1)N1CCCC(Nc2ccc3[nH]ncc3c2)C1` (centres unmarked) [Example 227, N1-(2-fluoroethyl)-2-[3-(1H-5-indazolylamino)piperidino]-2-phenylacetamide] here?
Answer: 100.3 ± 0.5%

Question: What about the inhibition in vivo at 30 mg/kg [2, 6] of the same compound?
Answer: 22.2 ± 7.4%

Question: What does the source list for `FCCNC1CCC(Nc2ccc3[nH]ncc3c2)CC1` (centres unmarked) [Example 246, N1-(2-fluoroethyl)-N4-(1H-5-indazolyl)-1,4-cyclohexanediamine]?
Answer: inhibition at 0.3 µM [3]: 41.9 ± 15.4%; Protein level of urine (mg/kg/day) SEM ([4]; 25 mg/liter together with drinking water for two weeks): 220.2 ± 17.7 mg/kg/day

Question: What does the source list for `CCCN[C@H]1CC[C@@H](Nc2cccc3cnccc23)CC1` [Example 260 (syn)]?
Answer: inhibition at 1 µM [3]: 56.5 ± 14.9%; inhibition in vivo at 30 mg/kg [2, 6]: 19.6 ± 10.5%

Question: How did the inhibition in vivo at 30 mg/kg [2, 6] turn out when `FCCN[C@H]1CC[C@H](Nc2cccc3cnccc23)CC1` [Example 261 (anti), N1-(2-Fluoroethyl)-N4-(5-isoquinolyl)-1,4-cyclohexanediamine] was run?
Answer: 47.3 ± 3.6%

Question: How did the inhibition at 0.3 µM [3] turn out when `FCCN[C@H]1CC[C@@H](Nc2cccc3cnccc23)CC1` [Example 261 (syn), N1-(2-Fluoroethyl)-N4-(5-isoquinolyl)-1,4-cyclohexanediamine] was run?
Answer: 24.2 ± 3.9%

Question: And the inhibition at 1 µM [3]?
Answer: 59.4 ± 10.4%

Question: What about the inhibition in vivo at 30 mg/kg [2, 6] of the same compound?
Answer: 46.4 ± 4.8%

Question: With `FC(F)(F)CCCN1CCCC(Nc2cccc3cnccc23)C1` (centres unmarked) [Example 273, N-(5-isoquinolyl)-N-[1-(4,4,4-trifluorobutyl)-3-piperidyl]amine] as the compound, how does the inhibition in vivo at 30 mg/kg [2, 6] read?
Answer: 30.4 ± 7.3%

Question: `CCCN1CCC(Nc2ccc3[nH]ncc3c2)CC1` [Example 286, N-(1H-5-indazolyl)-N-(1-propyl-4-piperidyl)-amine] was tested. Which inhibition in vivo at 30 mg/kg [2, 6] did it give?
Answer: 23.6 ± 8.6%

Question: With `c1cc2[nH]ncc2cc1NC1CCN(CC2CC2)CC1` [Example 287, N-[1-(cyclopropylmethyl)-4-piperidyl]-N-(1H-5-indazolyl)amine] as the compound, how does the inhibition in vivo at 30 mg/kg [2, 6] read?
Answer: 24.4 ± 6.8%

Question: Which inhibition in vivo at 30 mg/kg [2, 6] does the source give for `FCCCN1CCC(Nc2ccc3[nH]ncc3c2)CC1` [Example 289, N-[1-(3-fluoropropyl)-4-piperidyl]-N-(1H-5-indazolyl)amine] here?
Answer: 30.8 ± 5.7%

Question: Which inhibition in vivo at 30 mg/kg [2, 6] does the source give for `FC(F)(F)CCN1CCC(Nc2ccc3[nH]ncc3c2)CC1` [Example 290, N-(1H-5-indazolyl)-N-[1-(3,3,3-trifluoropropyl)-4-piperidyl]amine] here?
Answer: 17.2 ± 2.9%

Question: With `FC(F)(F)c1ccc(CN2CCCC(Nc3ccc4[nH]ncc4c3)C2)cc1` (centres unmarked) [Example 298, N-(1H-5-indazolyl)-N-{1-[4-(trifluoromethyl)-benzyl]-3-piperidyl}amine] as the compound, how does the inhibition at 0.3 µM [3] read?
Answer: 15.7 ± 9.9%

Question: What about the inhibition in vivo at 30 mg/kg [2, 7] of the same compound?
Answer: 18.9 ± 3.1%

Question: For `Fc1ccc(CN2CCCC(Nc3ccc4[nH]ncc4c3)C2)cc1F` (centres unmarked) [Example 300, N-[1-(3,4-difluorobenzyl)-3-piperidyl)-N-(1H-5-indazolyl)amine], which inhibition at 0.3 µM [3] is on record?
Answer: 81.9 ± 11.9%

Question: What about the “Protein level of urine (mg/kg/day) ± SEM” value [5] of the same compound?
Answer: 437.1 ± 95.9 mg/kg/day

Question: What about the “Protein level of urine (mg/kg/day) SEM” value ([4]; oral 30 mg/kg twice daily for two weeks) of the same compound?
Answer: 602.2 ± 47.3 mg/kg/day

Question: What about the inhibition in vivo at 30 mg/kg [2, 7] of the same compound?
Answer: 24.1 ± 3.8%

Question: Which inhibition in vivo at 30 mg/kg [2, 6] does the source give for `CCCN1CCC(Nc2cccc3cnccc23)CC1` [Example 318, N-(5-isoquinolyl)-N-(1-propyl-4-piperidyl)-amine] here?
Answer: 22.7 ± 5.1%

Question: With `FCCCN1CCC(Nc2cccc3cnccc23)CC1` [Example 322, N-[1-(3-fluoropropyl)-4-piperidyl]-N-(5-isoquinolyl)amine] as the compound, how does the inhibition in vivo at 30 mg/kg [2, 6] read?
Answer: 41.4 ± 7.4%
